Laboratory results published in patent US7772177B2, “BIR domain binding compounds” (Aegera Therapeutics, Inc., priority 2005, dated 2010).
Structures can show the parent of a compound that is named as a salt.

Legend:
[1] = system: XIAP BIR3; assay: Pull-down assay with affinity beads, western blot; format: binding; details: Method 33A
Procedure: Prior to the pull-down assay the compound 168-affinity-agarose beads were prepared as follows:
300 ul of avidine-agarose beads prepared as 50% slurry in buffer A were incubated with 40 ul compound 168 (2.5 mM final) for 6 hrs at 4° C. with shaking. Upon incubation the beads were washed 3 times with buffer A.
On the day of the pull-down assay, cells such as MDA-MB-231 or 293A were collected and lyzed with a buffer A containing 20 mM Tris HCl, 150 mM NaCl, 10% Glycerol 1% NP-40 and Protease inhibitor cocktail obtained from Sigma with a final protein concentration between 3 to 30 ug/ul.
For the pull-down assay, 60 ul of the compound 168-beads preparation were incubated with 300 ug cells lysate and 10 ul compound 107 (0.36 mM final) or as control with 10 ul of buffer A to get a final volume of 550 ul. The mixture was then incubated at 4 C over night with shaking. The following day, the beads were washed three times with the buffer A and the final bead pellet was re-suspended in 50 ul of 2× Leamli buffer. The samples were then centrifuged and the supernatant was collected for western blot analysis directed against XIAP of the other IAP's.
Alternatively a similar protocol was performed with AVPI-Biotin and IPVA-Biotin probes.

[2] = molecular target: T1, GST-XIAP BIR3RING (Homo sapiens, UniProt P98170); assay: Fluorescence polarization-based competition assay, XIAP Bir3-RING; format: binding
T1 construct: made in house; host or cells: E. coli DH5-alpha
Method in brief: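 Competitive fluorescence polarization with GST-XIAP BIR3-RING (aa 246-497, E. coli-expressed) and a fluorescein-labelled peptide probe in 50 mM MES pH 6.5 with BSA; protein fixed at titrated linear-signal level. Compound autofluorescence and quenching checked; IC50 from 10-point dilutions, Ki derived by Nikolovska-Coleska equation.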

[3] = molecular target: T2, GST-HIAP2 (cIAP-1) BIR 3 (Homo sapiens, UniProt Q13490); assay: Fluorescence polarization-based competition assay, cIAP-1 Bir3; format: binding
T2 construct: made in house; host or cells: E. coli DH5-alpha
Method in brief: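 GST-cIAP-1 BIR3 (aa 251–363, E. coli) at a titrated fixed level, combined with fluorescein-labelled peptide probe and a 10-point compound series in 50 mM MES pH 6.5 with BSA. Polarization read at ex 485/em 535 nm; IC50 fitted, and Ki derived using the Nikolovska-Coleska equation.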

[4] = molecular target: T3, GST-HIAP1(cIAP-2) BIR 3 (Homo sapiens, UniProt Q13489); assay: Fluorescence polarization-based competition assay, cIAP-2 Bir3; format: binding
T3 construct: made in house; host or cells: E. coli DH5-alpha
Method in brief: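 GST-cIAP-2 BIR3 (aa 236-349, E. coli-expressed) at a pre-titrated fixed level, with fluorescein-labelled AVPF-peptide probe and 10-point compound dilutions in 50 mM MES pH 6.5 with BSA. Fluorescence polarization read at Ex 485/Em 535 nm; IC50 from curve fit, Ki derived per Nikolovska-Coleska equation.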

[5] = system: MDA-MB-231 cells; assay: Survival assay (MTS) on MDA-MB-231 cells; format: cell-based; details: Homo sapiens, 72 hours, read-out: EC50 MDA-MB-231 breast derived cell line
Procedure: MDA-MD-231 (breast) and H460 (lung) cancer cells were cultured in RPMI1640 media supplemented with 10% FBS and 100 units/mL of Penicillin and Steptomycin.
(§1) Survival assays were routinely done on MDA-MB-231 and H460 cells. Cells were seeded in 96 well plates at a respective density of 5000 and 2000 cells per well and incubated at 37° C. in presence of 5% CO2 for 24 hours. Selected compounds were diluted into the media at various concentration ranging from 0.01 uM up to 100 uM. Diluted compounds were added onto the MDA-MB-231 cells. For H460 cells, the compounds were added either alone or in presence of 3 ng/ml of TRAIL. After 72 hours cellular viability was evaluated by MTS based assays. A solution of [3-(4,5-dimethylthiazol-2-yl)-5-(3-carboxymethoxyphenyl)-2-(4-sulfophenyl)-2H-tetrazolium, inner salt; MTS] was added onto cells for a period of 1 to 4 hours. Upon incubation the amount of converted MTS was evaluated using a Tecan spectrophotometer set at 570 nm.

[6] = system: selected cell lines in hollow fibers; assay: Hollow fiber in vivo model; parameters: species or system Nu/Nu CD-1 male mice; details: Method 37, sub-cutaneous route
Procedure: At day 1, selected cell lines were cultured and the fiber filled at a cell density of about 40,000 cells/fiber. At the day of operation (day 4), three fibers are implanted sub-cutaneous into 28-35 Nu/Nu CD-1 male mice. On day 5, mice start to receive daily injection via sub-cutaneous route of control vehicle or vehicle containing the selected compound at the appropriate concentration and/or injection of cytotoxic agent via intra-peritoneal route. Upon 7 days of non-consecutive treatments, the animals are sacrificed, each fiber is removed and the metabolic viability of the remaining cells determined by MTT assay. Efficacy of the compound is define as the difference between the vehicle-treated animal and the animal treated with the compound alone or the compound given in combination of the cytotoxic agent

[7] = system: H460 cells; assay: Combination anti-cancer therapy in vivo with Taxotere, H460 tumors; parameters: species or system Female CD-1 nude mice; details: cumulative dose of 20 mg/kg, sc per day
Procedure: Taxotere (30 mg/kg, ip)/Saline (n=9)
Taxotere (30 mg/kg, ip)/compound 56 (2×5 mg/kg, sc) (n=10)
Female CD-1 nude mice (approximately 20-25 g) were subcutaneously injected with 1×10^6 H460 cells in the right flank. Animals were balanced into groups based on tumor size and drug therapy began when tumors were ˜30-50 mm^3. Animals that had no tumor or that were deemed outliers because of excessive tumor size at this time were removed from the study. The remaining animals received Taxotere (or equivalent volume of vehicle) at 30 mg/kg, ip 2 times, one week apart. The compound was given two times per day (at 10 mg/kg, sc, approximately 6 hrs apart), starting at the time of Taxotere, and continuing daily for the duration of the experiment. If dehydration occurred, animals received sc fluids (0.5 ml). Tumor size was measured three times per week. Health assessments were performed at the time of the compound's delivery.

[8] = molecular target: T4, XIAP Bir3-RING (GST-BIR 3RING) (Homo sapiens, UniProt P98170); assay: Caspase de-repression assay using cellular extracts (apoptosome), XIAP Bir3-RING; format: biochemical; details: 293 cell S100 extract
T4 construct: made in house; host or cells: E. coli DH5-alpha
Method in brief: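 293-cell S100 extract with 0.25 uM-2 uM GST-XIAP fusion and compound (0.02 uM-40 uM), activated by 1 mM dATP, 0.1 mM ALLN and cytochrome C at 37° C. for 25 min in pH 7.0 Pipes buffer. Caspase-3 activity read as initial rate of DEVD-AMC cleavage (ex 360/em 444 nm) over 1 h, relative to fully activated and XIAP-repressed extract.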

[9] = molecular target: T5, XIAP Bir2-Bir3-RING (GST-linker BIR2 BIR3RING) (Homo sapiens, UniProt P98170); assay: Caspase de-repression assay using cellular extracts (apoptosome), XIAP Bir2-Bir3-RING; format: biochemical; details: 293 cell S100 extract
T5 construct: made in house; host or cells: E. coli DH5-alpha
Procedure: 100 ug of 293 cell S100 extract and 0.25 uM-2 uM of GST-Xiap fusion protein (GST-BIR 3RING, GST-linker BIR2 BIR3RING) were co-incubated with serial dilutions of compound (0.02 uM-40 uM). Extracts were activated by adding 1 mM dATP, 0.1 mM ALLN, 133 ug Cytochrome C (final concentrations), and incubating at 37° C. for 25 minutes. All reactions and dilutions used S100 buffer (50 mM Pipes pH 7.0, 50 mM KCl, 0.5 mM EGTA pH 8.0, 2 mM MgCl2 supplemented with 1/1000 dilutions of 2 mg/ml Cytochalisin B, 2, mg/ml Chymotstatin, Leupeptin, Pepstatin, Antipain, 0.1M PMSF, 1M DTT). Final reaction volume was 30 ul. Caspase-3 activity was measured by overlaying 30 ul of a 0.4 mM DEVD-AMC solution. AMC cleavage was measured in a TECAN spectrophotometer at 360 nm excitation and 444 nm emission, on a kinetic cycle of 1 hour with readings taken every 5 minutes. Caspase activity was calculated as Vo of AMC fluorescence/sec. Caspase de-repression by our compounds were compared to fully activated extract and activated extract repressed by the presence of XIAP fusion protein.
(§2) Results: Compounds were also tested in the apoptosome assay and the linker-BIR2/caspase-3 inhibition assay and found to have IC50s in the following ranges: A: >10 μM; B: <10 μM; C: <1 μM, as shown in Table 7.

[10] = molecular target: T6, caspase-3 inhibited by linker BIR2-BIR3-RING of XIAP (Homo sapiens, UniProt P98170); assay: Caspase-3 linker-BIR2-BIR3-RING derepression assay; format: biochemical
T6 construct: made in house; host or cells: E. coli DH5-alpha (GST-XIAP); E. coli AD494 (His-caspase-3)
Procedure: In order to determine the relative activity of the selected compound against BIR2, an in vitro assay was used where caspase-3 was inhibited by linker-BIR2 or linker BIR2-BIR3-RING of XIAP. Briefly, 1.5 ul of the enzyme, 0.25 uM to 2 uM of GST-Xiap fusion protein (GST-linker BIR2, GST-linker BIR2BIR3RING) were co-incubated with serial dilutions of compound (80 uM-0.04 uM). Caspase 3 activity was measured by overlaying 25 ul of a 0.4 mM DEVD-AMC solution. Final reaction volume was 100 ul. All dilutions were performed in caspase buffer (50 mM Hepes pH 7.4, 100 mM NaCl, 10% sucrose, 1 mM EDTA, 10 mM DTT, 0.1% CHAPS (Stennicke, H. R., and Salvesen, G. S. (1997). Biochemical characteristics of caspase-3, -6, -7, and -8. J. Biol. Chem. 272, 25719-25723)).
The fluorescent AMC released from the caspase-3 hydrolysis of the substrate was measured in a TECAN spectrophotometer at 360 nm excitation and 444 nm emission, on a kinetic cycle of 30 minutes with readings taken every 2 minutes. Caspase activity was calculated as Vo of AMC fluorescence/sec. Caspase de-repression by our compounds were compared to caspase-3 alone and caspase 3 repressed by the presence of XIAP fusion protein.
as §2

[11] = system: SKOV-3 cell line; assay: Cell survival, SKOV-3 cell line; format: cell-based; details: Homo sapiens, SK-OV-3
Procedure: as §1
Various compounds, including compounds 16, 42, 44, 45, 48, 52, 53, 75, 84 and 89, were tested in the MDA-MB-231 breast derived cell line and found to have EC50 of <5 μM. […] Also, various compounds 175, 176, 177 and 178 were tested against SKOV-3 cell line, and found to have EC50 of <5 μM.

T3 sequence (Q13489 236-349): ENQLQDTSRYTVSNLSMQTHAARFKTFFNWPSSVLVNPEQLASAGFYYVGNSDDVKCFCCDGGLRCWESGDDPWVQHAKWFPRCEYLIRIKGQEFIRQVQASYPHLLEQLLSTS
T2 sequence (Q13490 251-363): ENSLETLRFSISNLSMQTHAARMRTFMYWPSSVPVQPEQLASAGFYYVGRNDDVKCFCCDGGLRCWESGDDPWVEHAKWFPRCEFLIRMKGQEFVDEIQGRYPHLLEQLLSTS
T1 sequence (P98170 246-497): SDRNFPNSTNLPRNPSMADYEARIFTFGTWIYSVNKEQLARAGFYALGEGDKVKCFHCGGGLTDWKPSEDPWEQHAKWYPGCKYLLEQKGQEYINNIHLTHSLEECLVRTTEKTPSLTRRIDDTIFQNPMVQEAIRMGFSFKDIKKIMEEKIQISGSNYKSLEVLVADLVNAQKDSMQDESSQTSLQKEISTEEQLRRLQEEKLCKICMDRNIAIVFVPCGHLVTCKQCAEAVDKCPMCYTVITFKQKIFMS
T6 sequence (P98170 93-497): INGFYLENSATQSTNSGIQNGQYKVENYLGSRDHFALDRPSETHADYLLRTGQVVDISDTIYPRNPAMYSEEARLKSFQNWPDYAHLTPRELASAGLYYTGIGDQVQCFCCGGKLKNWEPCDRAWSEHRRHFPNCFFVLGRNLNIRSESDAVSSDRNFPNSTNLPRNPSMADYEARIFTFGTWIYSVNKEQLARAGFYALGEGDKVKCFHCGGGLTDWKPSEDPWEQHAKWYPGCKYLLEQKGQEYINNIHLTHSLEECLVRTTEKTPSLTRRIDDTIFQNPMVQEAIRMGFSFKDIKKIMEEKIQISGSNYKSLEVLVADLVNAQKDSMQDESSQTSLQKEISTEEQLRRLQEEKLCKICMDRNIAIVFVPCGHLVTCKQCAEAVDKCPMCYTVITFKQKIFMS
T5 sequence (P98170 93-497): as above
T4 sequence (P98170 246-497): as the sequence (P98170 246-497) above

Structure (SMILES)	IC50 [2] [µM]	IC50 [3] [µM]	IC50 [4] [µM]	EC50 [5] [µM]	EC50 [11] [µM]	also measured
CN[C@@H](C)C(=O)N[C@H](C(=O)N1CCC[C@H]1CN(CCc1ccccc1)C(=O)CCCCC1SC[C@@H]2NC(=O)N[C@H]12)C(C)(C)C (stereo partly drawn) [Compound 168]						Pull-down of XIAP BIR3 (Western-blot) [1]: XIAP BIR3 was pulled-down
CN[C@@H](C)C(=O)N[C@H](C(=O)N1CCC[C@H]1CN(CCc1ccccc1)C(=O)[C@@H](N)Cc1ccccc1)C(C)(C)C [Compound 44]	< 10	< 1	< 1	< 5		
CN[C@@H](C)C(=O)N[C@H](C(=O)N1CCC[C@H]1CN(CCc1ccccc1)C(=O)[C@@H](Cc1ccccc1)NC)C(C)(C)C [Compound 52]	< 1	< 1	< 1	< 5		
CN[C@@H](C)C(=O)N[C@H](C(=O)N1CCC[C@H]1CN(CCc1ccccc1)C(=O)[C@H](N)Cc1ccc(OC)cc1)C(C)(C)C [54 bis-HCl]						MTT signal in hollow fiber model [6]: reduction in MTT signal; Anti-tumor activity in combination with Taxotere [7]: anti-tumor activity
CN[C@@H](C)C(=O)N[C@H](C(=O)N1CCC[C@H]1CNCCc1ccccc1)C(C)(C)C [Compound 16]	< 10	< 1	< 10	< 5		IC50 [8]: < 1 µM; IC50 [9]: > 10 µM; IC50 [10]: > 10 µM
CN[C@@H](C)C(=O)N[C@H](C(=O)N1CCC[C@H]1CN(CCc1ccccc1)C(=O)CNCc1ccccc1)C(C)(C)C [Compound 45]	< 1	< 1	< 1	< 5		
CN[C@@H](C)C(=O)N[C@H](C(=O)N1CCC[C@H]1CN(CCc1ccccc1)C(=O)CCCC(=O)N(CCc1ccccc1)C[C@@H]1CCCN1C(=O)[C@@H](NC(=O)[C@H](C)NC)C(C)(C)C)C(C)(C)C [Compound 177]					< 5	
CN[C@@H](C)C(=O)N[C@H](C(=O)N1CCC[C@H]1CN(CCc1ccccc1)C(=O)c1ccc(-c2ccc(C(=O)N(CCc3ccccc3)C[C@@H]3CCCN3C(=O)[C@@H](NC(=O)[C@H](C)NC)C(C)(C)C)cc2)cc1)C(C)(C)C [Compound 178]					< 5	
CN[C@@H](C)C(=O)N[C@H](C(=O)N1CCC[C@H]1CN(CCc1ccccc1)C(=O)CCCCCCCCC(=O)N(CCc1ccccc1)C[C@@H]1CCCN1C(=O)[C@@H](NC(=O)[C@H](C)NC)C(C)(C)C)C(C)(C)C [Compound 176]					< 5	
CN[C@@H](C)C(=O)N[C@H](C(=O)N1CCC[C@H]1CN(CCc1ccccc1)C(=O)[C@H](N)Cc1ccccc1)C(C)(C)C [Compound 42]	< 1	< 1	< 1	< 5		
CN[C@@H](C)C(=O)N[C@H](C(=O)N1CCC[C@H]1CN(CCc1ccccc1)C(=O)c1ccc(C(=O)N(CCc2ccccc2)C[C@@H]2CCCN2C(=O)[C@@H](NC(=O)[C@H](C)NC)C(C)(C)C)cc1)C(C)(C)C [Compound 175]					< 5	
